# Reference: patent publication US5670538A, “Use of prodelphinidins for obtaining medicaments intended for the treatment of arthrosis” (Laboratoires Dolisos, priority 1992, dated 1997)
# Read-outs that look alike come from different tables or passages of the source.
# Test system: human articular chondrocytes
# Experiment: Radioimmunoassay of cartilaginous proteoglycans (PG) produced in tridimensional culture of human chondrocytes
# Format: cell-based
# Details: for PG in the clusters over 12 days: 0-12 days
# Text: The model used for testing the proanthocyanidols, namely the tridimensional culture of human chondrocytes allows chondrorepair to be quantified by the production of matrix substances: type II collagen, proteoglycans, and chondroresorption by the reduction in the levels of prostaglandin E2 and of OH° and O°2 type free radicals produced.
# 1. Tridimensional culture of human chondrocytes
# The technique used has been described in detail (Bassleer et al., 1986).
# Briefly, human articular chondrocytes are cultivated in DMEM (Dulbecco's Modification of Eagle's Medium--ICN--Gand, Belgium) with either Ultroser G 1% (GIBCO, Gand, Belgium) or 10% of foetal calf serum (ICN--Gand--Belgium), and 50 μg of ascorbic acid/ml added to it. The cartilage originates from the apparently normal zone of heads of human femur suffering from arthrosis, immediately after an operation carried out to insert a total hip prosthesis; it can also originate from the head of a healthy femur, but which has undergone a traumatism and has had to be replaced. This cartilage is then digested by clostridial collagenase 1 mg/ml (Boehringer-Mannheim, Germany) in a buffer (NaCl 120 mM, CaCl2 1 mM, KCl 5 mM, KH2 PO4 1 mM, NaHCO3 25 mM, glucose 2 mM and Hepes 30 mM, pH 7.4) for 24 hours. After 6 successive washings and centrifugations, the chondrocytes, isolated from their matrix, are cultured in flasks (10^6 cells/2 ml of culture medium) placed on a gyrator (10 rpm). The cultures are kept at 37° C. in an atmosphere of air 95%-CO2 5% (Bassleer et al., 1986). Cultivated under these conditions, after 4 to 5 days the chondrocytes form a tridimensional cluster in each flask. These clusters, which at first have a flocculent appearance, then tend to condense during the culture. After two weeks, their diameter is, in general, from 1 to 2 mm.
# The fresh weight of the clusters increases with the duration of the culture, above all during the few first days.
# 2. Radioimmunoassay of cartilaginous proteoglycans (PG)
# The PGs are measured with a radioimmunoassay (RIA) which is specific and sensitive to human cartilaginous PGs (Gysen et al. 1984). The PGs were extracted from human cartilage, according to the methods described by Roughley et al., (1981) and by Bayliss and Venn (1980). The antiserum against the cartilaginous PGs was obtained from the rabbit according to the technique of Vaitukaitis et al. (1971). The radioimmunoassay is carried out in a 0.4 ml volume consisting of 0.1 ml of tracer solution (15000 to 20000 cpm ^125 I-PG, labelled by the chloramine T method (Greenwood, 1973). 0.1 ml of anti-PG antiserum diluted to 1/5000 in phosphate-buffered saline (PBS-50 mM PO4, 150 mM NaCl ), containing BSA (5 g/l bovine serum albumin and 6.7 mM sodium azide) (incubation buffer) and 0.2 ml of several dilutions of the culture medium or of the cluster extract or also of the antigen (0.5 -500 ng/tube).
# After four days at 4° C., the free PGs* (radioactive PGs) are separated from the PG*-antibody complexes by double precipitation (Franchimont et al., 1983).
# The sensitivity of the assay is 0.6 ng/tube. The accuracy of measurement is of the order of 4%. The coefficients of the intra- and inter assay variation are less than 10% and 20% respectively.
# The antibodies are directed against the antigenic determinants of the central protein of PG. There is a complete crossed reaction with human PGs of cartilage from the ribs, vertebral disks and trachea, even with PGs extracted from veins or arteries. There is no cross reaction with glycosaminoglycans or with PGs extracted from foetal tissues or the small PGs from bone.
# The PGs are measured directly in the culture medium. As for the chondrocyte clusters, they are washed 3 times in a phosphate-buffered saline (PBS-50 mM PO4, 150 mM NaCl pH 7.4) containing protease inhibitors (Oegema et al., 1975:100 mM 6-aminohexanoic acid, 10 mM EDTA, 50 mM benzamidine hydrochloride, 5.10^-8 M trypsin inhibitor, 6.7 mM sodium azide and 200 U/ml superoxide dismutase). […]
structure (smiles),measurement,setting,value
"Oc1cc(O)c2c(c1)O[C@H](c1cc(O)c(O)c(O)c1)[C@@H](O)[C@@H]2c1c(O)cc(O)c2c1O[C@H](c1cc(O)c(O)c(O)c1)[C@@H](O)[C@@H]2c1c(O)cc(O)c2c1O[C@H](c1cc(O)c(O)c(O)c1)[C@@H](O)C2 [Substance Ic, GC-(4 alpha→8) GC-(4 a→8)-GC]",PG in the clusters over 12 days,"1% Ultroser G, 1 μg/ml",886 ± 114 ng/μg DNA
same,PG in the clusters over 12 days,"1% Ultroser G, 10 μg/ml",1046 ± 74 ng/μg DNA
same,PG in the clusters over 12 days,"1% Ultroser G, 100 μg/ml",1184 ± 33 ng/μg DNA
same,"PGs released in the culture medium, effect in words","1% Ultroser G, 1 μg/ml",significant effect
same,PGs released in the culture medium,"1% Ultroser G, culture time 0-4 days, 1 μg/ml",15.9 ± 1.15 μg/μg DNA/96 h
same,PGs released in the culture medium,"1% Ultroser G, culture time 0-4 days, 10 μg/ml",19.1 ± 1.2 μg/μg DNA/96 h
same,PGs released in the culture medium,"1% Ultroser G, culture time 0-4 days, 100 μg/ml",21.1 ± 1.0 μg/μg DNA/96 h
same,PGs released in the culture medium,"1% Ultroser G, culture time 4-8 days, 1 μg/ml",3.7 ± 0.15 μg/μg DNA/96 h
same,PGs released in the culture medium,"1% Ultroser G, culture time 4-8 days, 10 μg/ml",4.4 ± 0.52 μg/μg DNA/96 h
same,PGs released in the culture medium,"1% Ultroser G, culture time 4-8 days, 100 μg/ml",4.9 ± 0.45 μg/μg DNA/96 h
same,PGs released in the culture medium,"1% Ultroser G, culture time 8-12 days, 1 μg/ml",1.32 ± 0.7 μg/μg DNA/96 h
same,PGs released in the culture medium,"1% Ultroser G, culture time 8-12 days, 10 μg/ml",1.53 ± 0.15 μg/μg DNA/96 h
same,PGs released in the culture medium,"1% Ultroser G, culture time 8-12 days, 100 μg/ml",1.75 ± 0.05 μg/μg DNA/96 h
same,"Proteoglycans released during the 12 days of culture, Abs","1% Ultroser G, cumulative, 1 μg/ml",20.9 μg/μg DNA/12 days
same,"Proteoglycans released during the 12 days of culture, Abs","1% Ultroser G, cumulative, 10 μg/ml",25 μg/μg DNA/12 days
same,"Proteoglycans released during the 12 days of culture, Abs","1% Ultroser G, cumulative, 100 μg/ml",27.8 μg/μg DNA/12 days
same,"Concentrations of PG in the clusters, effect in words","1% Ultroser G, three concentrations studied",significantly stimulated and in a dose-dependent way
same,activity at 1 µg/mL,"Homo sapiens, Chondrocyte, 288 h, 1% Ultroser G, cumulative, 1 μg/ml, control = 100, read-out: Proteoglycans released during the 12 days of culture, %",127%
same,activity at 10 µg/mL,"Homo sapiens, Chondrocyte, 288 h, 1% Ultroser G, cumulative, 10 μg/ml, control = 100, read-out: Proteoglycans released during the 12 days of culture, %",150%
same,activity at 100 µg/mL,"Homo sapiens, Chondrocyte, 288 h, 1% Ultroser G, cumulative, 100 μg/ml, control = 100, read-out: Proteoglycans released during the 12 days of culture, %",170%
same,activity at 10 µg/mL,"Homo sapiens, Chondrocyte, foetal calf serum, Table 14, 0-4 days, 10 μg/ml, control = 100%, read-out: PG in the culture medium, % of control",120%
same,activity at 100 µg/mL,"Homo sapiens, Chondrocyte, foetal calf serum, Table 14, 0-4 days, 100 μg/ml, control = 100%, read-out: PG in the culture medium, % of control",160%
same,activity at 10 µg/mL,"Homo sapiens, Chondrocyte, foetal calf serum, Table 14, 4-8 days, 10 μg/ml, control = 100%, read-out: PG in the culture medium, % of control",118%
same,activity at 100 µg/mL,"Homo sapiens, Chondrocyte, foetal calf serum, Table 14, 4-8 days, 100 μg/ml, control = 100%, read-out: PG in the culture medium, % of control",121%
same,activity at 10 µg/mL,"Homo sapiens, Chondrocyte, foetal calf serum, Table 15, 0-4 days, 10 μg/ml, control = 100%, read-out: PG in the culture medium, % of control",132%
same,activity at 100 µg/mL,"Homo sapiens, Chondrocyte, foetal calf serum, Table 15, 0-4 days, 100 μg/ml, control = 100%, read-out: PG in the culture medium, % of control",140%
same,activity at 10 µg/mL,"Homo sapiens, Chondrocyte, foetal calf serum, Table 15, 4-8 days, 10 μg/ml, control = 100%, read-out: PG in the culture medium, % of control",117%
same,activity at 100 µg/mL,"Homo sapiens, Chondrocyte, foetal calf serum, Table 15, 4-8 days, 100 μg/ml, control = 100%, read-out: PG in the culture medium, % of control",138%
same,activity at 10 µg/mL,"Homo sapiens, Chondrocyte, foetal calf serum, Table 16, 0-8 days, 10 μg/ml, control = 100%, read-out: PG in the clusters over 8 days, % of control",117%
same,activity at 100 µg/mL,"Homo sapiens, Chondrocyte, foetal calf serum, Table 16, 0-8 days, 100 μg/ml, control = 100%, read-out: PG in the clusters over 8 days, % of control",132%
same,activity at 10 µg/mL,"Homo sapiens, Chondrocyte, foetal calf serum, Table 17, 0-8 days, 10 μg/ml, control = 100%, read-out: PG in the clusters over 8 days, % of control",125%
same,activity at 100 µg/mL,"Homo sapiens, Chondrocyte, foetal calf serum, Table 17, 0-8 days, 100 μg/ml, control = 100%, read-out: PG in the clusters over 8 days, % of control",139%
same,"PGs in the clusters, effect in words","foetal calf serum, 10 and 100 μg/ml",significantly increased
same,PG in the culture medium,"foetal calf serum, Table 14, 0-4 days, 10 μg/ml",7.8 ± 1.51 μg/μg DNA - 96 H
same,PG in the culture medium,"foetal calf serum, Table 14, 0-4 days, 100 μg/ml",10.4 ± 1.19 μg/μg DNA - 96 H
same,PG in the culture medium,"foetal calf serum, Table 14, 4-8 days, 10 μg/ml",2.34 ± 0.08 μg/μg DNA - 96 H
same,PG in the culture medium,"foetal calf serum, Table 14, 4-8 days, 100 μg/ml",2.40 ± 0.35 μg/μg DNA - 96 H
same,PG in the culture medium,"foetal calf serum, Table 15, 0-4 days, 10 μg/ml",7.0 ± 1.19 μg/μg DNA - 96 H
same,PG in the culture medium,"foetal calf serum, Table 15, 0-4 days, 100 μg/ml",7.5 ± 0.96 μg/μg DNA - 96 H
same,PG in the culture medium,"foetal calf serum, Table 15, 4-8 days, 10 μg/ml",2.0 ± 0.17 μg/μg DNA - 96 H
same,PG in the culture medium,"foetal calf serum, Table 15, 4-8 days, 100 μg/ml",2.4 ± 0.25 μg/μg DNA - 96 H
same,PG in the clusters over 8 days,"foetal calf serum, Table 16, 0-8 days, 10 μg/ml",915 ± 75 ng/μg DNA
same,PG in the clusters over 8 days,"foetal calf serum, Table 16, 0-8 days, 100 μg/ml",1035 ± 121 ng/μg DNA
same,PG in the clusters over 8 days,"foetal calf serum, Table 17, 0-8 days, 10 μg/ml",718.2 ± 62.61 ng/μg DNA
same,PG in the clusters over 8 days,"foetal calf serum, Table 17, 0-8 days, 100 μg/ml",799.5 ± 85.9 ng/μg DNA
